From paper PMC8199613, “Discovery of Novel Small-Molecule Inhibitors of PD-1/PD-L1 Interaction via Structural Simplification Strategy” (Molecules, 2021) come the findings set out here.

The nature of series [1]: Water solubility by HPLC. Conditions: aqueous buffer, thermodynamic from solid, pH 7.4, PBS. It is filed as physicochemical. As to the method:
The aqueous solubility was estimated by HPLC. The HPLC analysis was performed on a Shimadzu LC-20AT machine with a BDS Hypersil C18 column, and the column temperature was at 28 °C. Mobile phase B (100% MeOH) and mobile phase A (100% water) were used in a gradient elution program (0 min: 30% (B), 2 min: 50% (B), 8 min: 95% (B), 14 min: 95% (B), 18 min: 70% (B), 20 min: 30% (B)) with a flow rate of 1.0 mL/min at […]. Methanol was used to configure an accurate compounds concentration to calculate the standard curve. The excess test compound was dissolved in PBS (KH2PO4 0.24 g + KCl 0.2 g + NaCl 8 g + Na2HPO4·12H2O 3.58 g + 1 L water) and then analyzed by HPLC.

Series [2] concerns the target T1, PD-1/PD-L1 interaction (Homo sapiens, UniProt Q9NZQ7).
T1 construct: purchased Cisbio 64ICP01PEG
Description: HTRF-based PD-1/PD-L1 binding assay. Conditions: for inhibition at 0.1 µM: 0.1 μM compound, read-out: Inhibitory Rate (%) 0.1 μM; for inhibition at 0.1 µM / inhibition at 1 µM / IC50: HTRF; for inhibition at 1 µM: 1 μM compound, read-out: Inhibitory Rate (%) 1 μM; for IC50: two independent experiments; for LE: LE = −1.35 logIC50/Nheavy atoms (HTRF IC50).

The subject of series [3] is MDA-MB-231 cells. Kind of series: MTT non-specific cytotoxicity assay, MDA-MB-231. Conditions: for EC50: Homo sapiens, MDA-MB-231, 48 h, read-out: EC50 (μM)/MDA-MB-231 Toxicity; for direct killing of tumor cells: as shown in Table 3. It counts as cell-based. As for the experimental part:
(§1) Considering that the toxicity of the compound might strongly interfere with the assay if the tested compounds could block PD-1/PD-L1 interaction to activate T cells for killing tumors, we examined their cell toxicities of MDA-MB-231 and Jurkat T cells in MTT assay. […] Furthermore, Jurkat T cells were used to simulate primary T cells for investigating the immune toxicity of the treated compounds with the regular concentrations within 48 h.
(§2) The MDA-MB-231 and Jurkat cell line was provided by the Chinese Academy of Sciences Cell Bank. The cytotoxicity of the test compounds was determined using the MTT assay. Briefly, MDA-MB-231 and Jurkat cells were incubated at 37 °C in a humidified 5% CO2 incubator for 24 h in 96-microwell plates. Then, 100 μL of culture medium containing the test compounds at different concentrations was added to each well and incubated at 37 °C for another 48 h. The MTT was added and incubated for another 4 h, and the optical density was detected with a microplate reader at 570 nm. The IC50 values were calculated according to the dose-dependent curves.

The test system of series [4] is Jurkat T cells. Description: MTT non-specific cytotoxicity assay, Jurkat. It is filed as cell-based. As to conditions: for EC50: Homo sapiens, Jurkat, MTT, 48 h, read-out: EC50 (μM)/Jurkat Toxicity; for immune toxicity in Jurkat T cells: regular concentrations within 48 h. As to the method: as §1, §2
Series [5] concerns the target hPD-L1 (Homo sapiens, UniProt Q9NZQ7). Kind of series: SPR binding affinity assay (Biacore T200). As for the experimental part: To provide definitive evidence of direct binding to PD-L1 with small-molecule inhibitors, an SPR-based binding assay was performed using Biacore T200 instrument, which facilitates measurement of the kinetic parameters of ligand–protein complex formation. In this determination, hPD-L1/Fc was loaded on a Series S Sensor Chip Protein A. A9 and A15, with similar bioactivities in HTRF assay, were gradually subjected to this assay, and their kinetic parameters and the binding affinities were determined with the aid of Biacore evaluation software.
SPR analysis was carried out according to the method described by a previous article. The kinetic analysis for the interaction of small molecules with hPD-L1 was performed on a Biacore T200 (GE Healthcare Bio-sciences, Uppsala, Sweden) using Series S Sensor Chip Protein A (GE Healthcare Bio-sciences, Uppsala, Sweden, catalog # 29139131-AA). Briefly, Fc-hPD-L1 (Acro Biosystems, Cambridge, MA, USA, catalog #PD1-H5258) was diluted using 1 × PBS-P^+ buffer (phosphate buffer 1×, GE Healthcare Bio-sciences, catalog # 28-9950-84, enriched with 0.05% surfactant P20) containing 5% DMSO (Sigma-Aldrich, St. Louis, MO, America, catalog # D4540) and captured as the ligand (i.e., the target of small molecules) on protein A chip surface following Biacore T200 build-in protocol for kinetic/affinity analysis at a concentration of 10 μg/mL. The contact time and flow rates were set as 120 s and 10 μL/min for the ligand capture. Each experiment was performed using a pair of flow cells, one with ligand captured and the other kept as reference. A concentration gradient of analytes was freshly prepared in 1× PBS-P^+ buffer with 5% DMSO with at least five concentrations, and the concentration range was optimized according to different analytes. Analytes could flow through both ligand-captured flow cells and reference flow cells at the same rate (30 μL/min) and contact time (90 s). Solvent correction was included to avoid the impact of DMSO on surface plasmon effect during binding analysis. Extra washing of the flow system using 50% DMSO in 1×PBS-P^+ buffer was allowed to control carry over effects. For the regeneration of surface after each cycle (one-time ligand capture and binding of analyte at a single concentration) was carried out using 10 mM glycine pH 1.5 (GE Healthcare Bio-sciences, Uppsala, Sweden, catalog #BR-1003-54) at a flow rate of 30 μL/min for 30 s. Kinetic analysis was performed at 25 °C. Maximum binding response (Rmax) and equilibrium dissociation […] (KD) values were calculated using Biacore T200 Evaluation software following the 1:1 binding model.
For orientation: In SPR one partner is held on a chip, and binding of the other changes the refractive index at the surface.

Each structure is given as a SMILES string. In brackets after ≈: the same amount, converted by molar mass.

T1 sequence (Q9NZQ7 19-238 limits assumed): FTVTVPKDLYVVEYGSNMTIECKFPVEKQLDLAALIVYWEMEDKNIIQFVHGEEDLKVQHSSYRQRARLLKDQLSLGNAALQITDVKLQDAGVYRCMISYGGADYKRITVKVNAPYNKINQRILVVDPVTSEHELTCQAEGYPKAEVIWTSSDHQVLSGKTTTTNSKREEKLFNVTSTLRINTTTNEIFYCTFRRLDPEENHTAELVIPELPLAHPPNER
hPD-L1, sequence (Q9NZQ7 19-238 limits assumed): as above

What is called solubility is how much of the substance goes into solution per volume. For the molecule `COc1nc(OCc2cccc(-c3ccccc3)c2C)ccc1CNCCNC(C)=O` [BMS-202, reference compound], the concentration in solution in series [1] (solubility) was 90 µg/mL (≈ 215 µM).
Usually IC50 stands for the point on the concentration scale where inhibition reaches its midpoint. Low readings indicate greater potency in that assay, high ones weaker potency in that assay. Turning to `Cc1ccccc1-c1cccc(OCCCN2CCC(O)CC2)c1C.Cl` [Compound A1, 1-(3-((2,2′-Dimethyl-[1,1′-biphenyl]-3-yl)oxy)propyl)piperidin-4-ol hydrochloride], in series [2], the inhibition at 0.1 µM stood at 56%, the inhibition at 1 µM was 90%, the concentration for half-maximal inhibition (IC50) is 114 nM and the LE stood at 0.38.
Usually melting point stands for the temperature of the solid-liquid transition. `Cc1c(CN2CCC(N3CCC(O)CC3)CC2)cccc1-c1ccccc1F` [Compound A2, 1′-((2′-Fluoro-2-methyl-[1,1′-biphenyl]-3-yl)methyl)-[1,4′-bipiperidin]-4-ol] returned a melting point of 110 to 113 °C. Also, in series [2], the inhibition at 0.1 µM was 8.5% and the inhibition at 1 µM was 6.7%.
`COc1cc(-c2cccc(-c3ccccc3F)c2C)ccc1CN1CCC(O)CC1` [Compound A3, 1-((2″-Fluoro-3-methoxy-2′-methyl-[1,1′:3′,1″-terphenyl]-4-yl)methyl)piperidin-4-ol] registered a melting point of 61.5 to 63.5 °C. In addition, in series [2], the inhibition at 0.1 µM is 74.5%, the inhibition at 1 µM amounted to 96.2%, the IC50 is 18.4 nM and the LE is reported as 0.35.
For the molecule `COc1nc(-c2cccc(-c3ccccc3F)c2C)ccc1CN1CCC(O)CC1` [Compound A4, 1-((6-(2′-Fluoro-2-methyl-[1,1′-biphenyl]-3-yl)-2-methoxypyridin-3-yl)methyl)piperidin-4-ol], the melting point was in the range of 84 to 86 °C. In series [2], the inhibition at 0.1 µM worked out at 71%, the inhibition at 1 µM was found to be 98%, the IC50 worked out at 21.9 nM and the LE came to 0.36.
For the molecule `COc1nc(-c2cccc(-c3ccccc3F)c2C)ccc1CNC1CCC(O)CC1` (stereo not drawn) [Compound A5, 4-(((6-(2′-Fluoro-2-methyl-[1,1′-biphenyl]-3-yl)-2-methoxypyridin-3-yl)methyl)amino)cyclohexan-1-ol], the melting point is 80 to 82 °C. In series [2], this molecule had an IC50 of 14.3 nM and an LE of 0.35.
For `COc1nc(-c2cccc(-c3ccccc3F)c2C)ccc1CN1CCCC(C(N)=O)C1` (stereo not drawn) [Compound A6, 1-((6-(2′-Fluoro-2-methyl-[1,1′-biphenyl]-3-yl)-2-methoxypyridin-3-yl)methyl)piperidine-3-carboxamide] the same measures were 88 to 91 °C, 121 nM and 0.30.
For `COc1nc(-c2cccc(-c3ccccc3F)c2C)ccc1CN1CCC(C(N)=O)CC1` [Compound A7, 1-((6-(2′-Fluoro-2-methyl-[1,1′-biphenyl]-3-yl)-2-methoxypyridin-3-yl)methyl)piperidine-4-carboxamide] the same measures were 194 to 196 °C, 10.7 nM and 0.34.
For `COc1nc(-c2cccc(-c3ccccc3F)c2C)ccc1CN1CCC(C(=O)O)CC1` [Compound A8, 1-((6-(2′-Fluoro-2-methyl-[1,1′-biphenyl]-3-yl)-2-methoxypyridin-3-yl)methyl)piperidine-4-carboxylic acid], in that order: 218 to 220 °C, 20.6 nM and 0.33.
Regarding `COc1nc(-c2cccc(-c3ccccc3C)c2C)ccc1CNCCC(N)=O` [Compound A10], the melting point is 70 to 73 °C. Moreover, in series [2] (HTRF IC50 ratio), the “decrease in activity as compared with A9” value is “more than 10 fold”. For the same molecule, in series [2], the IC50 is 10.5 nM and the LE stood at 0.38.
For `COc1nc(-c2cccc(-c3ccccc3Cl)c2C)ccc1CNCCC(N)=O` [Compound A11], the melting point fell in the range of 49 to 51 °C. In addition, in series [3], the EC50 is 7.1 µM and the “direct killing of tumor cells” value is “do not directly kill tumor cells”. In addition, in series [2], the IC50 was 6.18 nM and the LE stood at 0.39. Also, in series [4], the EC50 was determined as 5.5 µM and the “immune toxicity in Jurkat T cells” value is reported as “lower cell toxicity”.
`COc1nc(-c2cccc(-c3ccccc3C(F)(F)F)c2C)ccc1CNCCC(N)=O` [Compound A12] registered a melting point of 50.5 to 53.5 °C. The “decrease in activity as compared with A9” value in series [2] (HTRF IC50 ratio) is “more than 10 fold”. In series [2], the IC50 was 51.5 nM and the LE turned out to be 0.31.
With `COc1nc(-c2cccc(-c3ccccc3)c2C)ccc1CNCCC(N)=O` [Compound A13], the melting point lay in the range of 127 to 128 °C. For the same molecule, in series [3], the EC50 is more than 10 µM and the “direct killing of tumor cells” value is given as “do not directly kill tumor cells”. Moreover, the “increase in potency over compound A11” value in series [2] (HTRF IC50 ratio) is “approximately 3 fold”. Moreover, in series [2], the IC50 came out at 1.94 nM and the LE is recorded as 0.43. The EC50 in series [4] was determined as 7.73 µM.
Molecule `COc1nc(-c2cccc(-c3cccc(F)c3)c2C)ccc1CNCCC(N)=O` [Compound A14, 3-(((6-(3′-Fluoro-2-methyl-[1,1′-biphenyl]-3-yl)-2-methoxypyridin-3-yl)methyl)amino)propenamide] gave a melting point of 48 to 51 °C. In series [3], the EC50 was more than 10 µM and the “direct killing of tumor cells” value is “do not directly kill tumor cells”. For the same molecule, in series [2], the IC50 was 1.75 nM and the LE was found to be 0.41. Moreover, the EC50 in series [4] is more than 10 µM.
One may read the Kd as a measure of binding affinity in units of concentration. The low end stands for a tighter complex, the high end for a looser complex. Molecule `COc1nc(-c2cccc(-c3ccc(F)cc3)c2C)ccc1CNCCC(N)=O` [Compound A15] had a melting point of 120 to 122 °C. Also, in series [3], the EC50 was determined as 10.2 µM and the “direct killing of tumor cells” value is recorded as “do not directly kill tumor cells”. Besides, in series [2], the IC50 came out at 0.97 nM and the LE is reported as 0.43. Also, in series [4], the EC50 worked out at 5.5 µM and the “immune toxicity in Jurkat T cells” value was “lower cell toxicity”. Moreover, the LE in series [5] (LE = -1.35log KD/Nheavy atoms (SPR KD)) was found to be 0.36. The kon in series [5] (SPR association rate, read-out: Ka (M-1s-1) / Kon) was determined as 505000 M⁻¹ s⁻¹. Moreover, in series [5] (SPR dissociation rate, read-out: Kd (s-1) / Koff), the koff is 0.0101 s⁻¹. In series [5] (SPR, 25 °C, 1:1 binding model), this molecule yielded a Kd of 19.9 nM.
`COc1nc(-c2cccc(-c3ccc(F)cc3F)c2C)ccc1CNCCC(N)=O` [Compound A16] displayed a melting point of 113 to 115 °C. In addition, in series [2], the IC50 worked out at 60 nM and the LE turned out to be 0.33.
Molecule `COc1nc(-c2cccc(-c3ccc(Cl)cc3F)c2C)ccc1CNCCC(N)=O` [Compound A17] came in with a melting point of 122 to 124 °C. In series [2], the concentration for half-maximal inhibition (IC50) worked out at 866 nM and the LE was 0.28.
As to `COc1nc(-c2cccc(-c3ccc(C(F)(F)F)cc3F)c2C)ccc1CNCCC(N)=O` [Compound A18], the melting point fell in the range of 137 to 139 °C. Also, in series [2], the IC50 stood at 791 nM and the LE came out at 0.25.
